In ChEMBL document CHEMBL4428102, “Discovery of an Orally Bioavailable Gonadotropin-Releasing Hormone Receptor Antagonist” (J Med Chem, 2016):

What follows are compounds tested against T1, Gonadotropin-releasing hormone receptor (Homo sapiens, UniProt P30968) (assay: Displacement of [125I]D-Trp6-LHRH from human GnRH receptor expressed in CHO-K1 cell membranes incubated for 1 hr by competitive binding assay).
T1 sequence (P30968 whole entry): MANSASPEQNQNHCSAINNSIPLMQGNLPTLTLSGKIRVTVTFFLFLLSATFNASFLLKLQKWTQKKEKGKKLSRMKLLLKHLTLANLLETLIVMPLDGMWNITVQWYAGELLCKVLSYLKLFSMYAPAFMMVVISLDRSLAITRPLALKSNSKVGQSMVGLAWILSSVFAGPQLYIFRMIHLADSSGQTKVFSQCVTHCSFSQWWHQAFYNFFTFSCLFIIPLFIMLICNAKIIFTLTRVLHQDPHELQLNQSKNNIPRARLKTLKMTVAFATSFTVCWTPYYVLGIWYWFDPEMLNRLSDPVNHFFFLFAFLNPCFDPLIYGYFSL

Row | SMILES | IC50 [nM]
1 | Cc1c(N2CCN(Cc3cccc4ccsc34)CC2)c(=O)n(C[C@H](N)c2ccccc2)c(=O)n1Cc1c(F)cccc1C(F)(F)F | 18.2
2 | Cc1cc(CN2CCN(c3c(C)n(Cc4c(F)cccc4C(F)(F)F)c(=O)n(C[C@H](N)c4ccccc4)c3=O)CC2)c(C(F)(F)F)o1 | > 100
3 | Cc1c(N2CCN(Cc3cocn3)CC2)c(=O)n(C[C@H](N)c2ccccc2)c(=O)n1Cc1c(F)cccc1C(F)(F)F | 7.01
4 | Cc1ccc(CN2CCN(c3c(C)n(Cc4c(F)cccc4C(F)(F)F)c(=O)n(C[C@H](N)c4ccccc4)c3=O)CC2)cn1 | 14.2
5 | Cc1c(N2CCN(Cc3ccc(=O)[nH]c3)CC2)c(=O)n(C[C@H](N)c2ccccc2)c(=O)n1Cc1c(F)cccc1C(F)(F)F | 28.1
6 | CC(=O)c1cccc(CN2CCN(c3c(C)n(Cc4c(F)cccc4C(F)(F)F)c(=O)n(C[C@H](N)c4ccccc4)c3=O)CC2)c1 | 0.16
7 | Cc1c(N2CCN(Cc3ccoc3)CC2)c(=O)n(C[C@H](N)c2ccccc2)c(=O)n1Cc1c(F)cccc1C(F)(F)F | 6.59
8 | COC(=O)c1cccc(CN2CCN(c3c(C)n(Cc4c(F)cccc4C(F)(F)F)c(=O)n(C[C@H](N)c4ccccc4)c3=O)CC2)c1 | 0.39
9 | COC(=O)c1ccccc1CN1CCN(c2c(C)n(Cc3c(F)cccc3C(F)(F)F)c(=O)n(C[C@H](N)c3ccccc3)c2=O)CC1 | 24.3
10 | Cc1c(N2CCN(Cc3ccccc3C#N)CC2)c(=O)n(C[C@H](N)c2ccccc2)c(=O)n1Cc1c(F)cccc1C(F)(F)F | 0.32
11 | Cc1c(N2CCN(Cc3cccc(S(C)(=O)=O)c3)CC2)c(=O)n(C[C@H](N)c2ccccc2)c(=O)n1Cc1c(F)cccc1C(F)(F)F | 0.38
12 | Cc1c(N2CCNC(c3ccccc3)C2)c(=O)n(C[C@H](N)c2ccccc2)c(=O)n1Cc1c(F)cccc1F (some centres not stated) | > 100
13 | Cc1c(N2CCN(Cc3ccccc3F)CC2)c(=O)n(C[C@H](N)c2ccccc2)c(=O)n1Cc1c(F)cccc1F | 4.1
14 | Cc1ccccc1CN1CCN(c2c(C)n(Cc3c(F)cccc3F)c(=O)n(C[C@H](N)c3ccccc3)c2=O)CC1 | 73.8
15 | Cc1c(N2CCN(Cc3ccccc3Cl)CC2)c(=O)n(C[C@H](N)c2ccccc2)c(=O)n1Cc1c(F)cccc1F | 19.1
16 | Cc1c(N2CCN(Cc3cccc4cccnc34)CC2)c(=O)n(C[C@H](N)c2ccccc2)c(=O)n1Cc1c(F)cccc1C(F)(F)F | > 100
17 | Cc1c(N2CCC(Cc3ccccc3)C2)c(=O)n(C[C@H](N)c2ccccc2)c(=O)n1Cc1c(F)cccc1F (some centres not stated) | > 100
18 | Cc1c(N2CCC(Cc3ccccc3)CC2)c(=O)n(C[C@H](N)c2ccccc2)c(=O)n1Cc1c(F)cccc1F | 34.2

Next, values leading:

Row | IC50 [nM] | SMILES
19 | 0.39 | Cc1c(N2CCN(Cc3ccc(Cl)o3)CC2)c(=O)n(C[C@H](N)c2ccccc2)c(=O)n1Cc1c(F)cccc1C(F)(F)F
20 | 17.7 | Cc1c(N2CCN(Cc3nccs3)CC2)c(=O)n(C[C@H](N)c2ccccc2)c(=O)n1Cc1c(F)cccc1C(F)(F)F
21 | 3.77 | Cc1c(N2CCN(Cc3ccc(Cl)nc3)CC2)c(=O)n(C[C@H](N)c2ccccc2)c(=O)n1Cc1c(F)cccc1C(F)(F)F
22 | 1.7 | Cc1c(N2CCN(Cc3cccc(F)c3)CC2)c(=O)n(C[C@H](N)c2ccccc2)c(=O)n1Cc1c(F)cccc1C(F)(F)F
23 | 3.8 | Cc1c(N2CCN(Cc3cccc(F)c3)CC2)c(=O)n(C[C@H](N)c2ccccc2)c(=O)n1Cc1c(F)cccc1F
24 | 36.9 | Cc1c(N2CCN(Cc3ccc([N+](=O)[O-])cc3)CC2)c(=O)n(C[C@H](N)c2ccccc2)c(=O)n1Cc1c(F)cccc1F
25 | > 100 | Cc1c(N2CCN(C(=O)OCc3ccccc3)CC2)c(=O)n(C[C@H](N)c2ccccc2)c(=O)n1Cc1c(F)cccc1F
26 | 48.6 | Cc1c(N2CCN(Cc3ccc(F)cc3)CC2)c(=O)n(C[C@H](N)c2ccccc2)c(=O)n1Cc1c(F)cccc1F
27 | 13.9 | Cc1c(N2CCN(Cc3cccnc3)CC2)c(=O)n(C[C@H](N)c2ccccc2)c(=O)n1Cc1c(F)cccc1F
28 | 14 | Cc1c(N2CCN(Cc3ccc(Cl)cc3)CC2)c(=O)n(C[C@H](N)c2ccccc2)c(=O)n1Cc1c(F)cccc1F
29 | 65.6 | Cc1c(N2CCN(Cc3ccccc3C(F)(F)F)CC2)c(=O)n(C[C@H](N)c2ccccc2)c(=O)n1Cc1c(F)cccc1F
30 | 35.3 | Cc1c(N2CCN(Cc3ccc(O)cc3)CC2)c(=O)n(C[C@H](N)c2ccccc2)c(=O)n1Cc1c(F)cccc1F
31 | > 100 | Cc1c(N2CCN(Cc3ccc[nH]c3=O)CC2)c(=O)n(C[C@H](N)c2ccccc2)c(=O)n1Cc1c(F)cccc1C(F)(F)F
32 | 129 | Cc1c(N2CCCCC2)c(=O)n(C[C@H](N)c2ccccc2)c(=O)n1Cc1c(F)cccc1F

The compounds below were run against T1, Gonadotropin-releasing hormone receptor (assay: Antagonist activity against human GnRH receptor expressed in HEK293 cells co-transfected with pGL4-NFAT promoter AP1-luc assessed as inhibition of 20 nM GnRH-induced NFAT activation pre-incubated for 1 hr before GnRH stimulation and measured after 6 hrs by luciferase reporter gene assay).
Format: cell-based

Row | SMILES | IC50 [nM]
33 | Cc1c(N2CCN(Cc3cccc4ccsc34)CC2)c(=O)n(C[C@H](N)c2ccccc2)c(=O)n1Cc1c(F)cccc1C(F)(F)F | 10200
34 | Cc1cc(CN2CCN(c3c(C)n(Cc4c(F)cccc4C(F)(F)F)c(=O)n(C[C@H](N)c4ccccc4)c3=O)CC2)c(C(F)(F)F)o1 | > 1000
35 | Cc1c(N2CCN(Cc3cocn3)CC2)c(=O)n(C[C@H](N)c2ccccc2)c(=O)n1Cc1c(F)cccc1C(F)(F)F | > 1000
36 | Cc1ccc(CN2CCN(c3c(C)n(Cc4c(F)cccc4C(F)(F)F)c(=O)n(C[C@H](N)c4ccccc4)c3=O)CC2)cn1 | 1690
37 | Cc1c(N2CCN(Cc3ccc(=O)[nH]c3)CC2)c(=O)n(C[C@H](N)c2ccccc2)c(=O)n1Cc1c(F)cccc1C(F)(F)F | 1090
38 | CC(=O)c1cccc(CN2CCN(c3c(C)n(Cc4c(F)cccc4C(F)(F)F)c(=O)n(C[C@H](N)c4ccccc4)c3=O)CC2)c1 | 16.5
39 | Cc1c(N2CCN(Cc3ccoc3)CC2)c(=O)n(C[C@H](N)c2ccccc2)c(=O)n1Cc1c(F)cccc1C(F)(F)F | > 1000
40 | COC(=O)c1cccc(CN2CCN(c3c(C)n(Cc4c(F)cccc4C(F)(F)F)c(=O)n(C[C@H](N)c4ccccc4)c3=O)CC2)c1 | 23.3
41 | COC(=O)c1ccccc1CN1CCN(c2c(C)n(Cc3c(F)cccc3C(F)(F)F)c(=O)n(C[C@H](N)c3ccccc3)c2=O)CC1 | > 10000
42 | Cc1c(N2CCN(Cc3ccccc3C#N)CC2)c(=O)n(C[C@H](N)c2ccccc2)c(=O)n1Cc1c(F)cccc1C(F)(F)F | 351
43 | Cc1c(N2CCN(Cc3cccc(S(C)(=O)=O)c3)CC2)c(=O)n(C[C@H](N)c2ccccc2)c(=O)n1Cc1c(F)cccc1C(F)(F)F | 214

Second part, the compound after the results:

Row | IC50 [nM] | SMILES
44 | 178 | Cc1c(N2CCN(Cc3ccc(Cl)o3)CC2)c(=O)n(C[C@H](N)c2ccccc2)c(=O)n1Cc1c(F)cccc1C(F)(F)F
45 | 1660 | Cc1c(N2CCN(Cc3nccs3)CC2)c(=O)n(C[C@H](N)c2ccccc2)c(=O)n1Cc1c(F)cccc1C(F)(F)F
46 | 554 | Cc1c(N2CCN(Cc3ccc(Cl)nc3)CC2)c(=O)n(C[C@H](N)c2ccccc2)c(=O)n1Cc1c(F)cccc1C(F)(F)F
47 | 321 | Cc1c(N2CCN(Cc3cccc(F)c3)CC2)c(=O)n(C[C@H](N)c2ccccc2)c(=O)n1Cc1c(F)cccc1C(F)(F)F
